Drawing on patent US8889854B2, “C-17 bicyclic amines of triterpenoids with HIV maturation inhibitory activity” (priority 2012, dated 2014), this text covers EC50 for seven compounds.

One assay concerns recombinant NL4-3 virus (Renilla luciferase in nef, Gag P373S; NLRluc). The assay can be described thus: HIV Cell Culture Assay (luciferase reporter virus in MT-2 cells). It counts as cell-based. As to conditions: Renilla, NL43, MT-2 cells infected for 4-5 days with NLRluc recombinants; luciferase activity. The method, then: MT-2 cells and 293T cells were obtained from the NIH AIDS Research and Reference Reagent Program. MT-2 cells were propagated in RPMI 1640 media supplemented with 10% heat inactivated fetal bovine serum, […]. The 293T cells were propagated in DMEM media supplemented with 10% heat inactivated fetal bovine serum (FBS), 100 units/mL penicillin G and 100 μg/mL streptomycin. The proviral DNA clone of NL4-3 was obtained from the NIH AIDS Research and Reference Reagent Program. A recombinant NL4-3 virus, in which a section of the nef gene from NL4-3 was replaced with the Renilla luciferase gene, was used as a reference virus. In addition, residue Gag P373 was converted to P373S. Briefly, the recombinant virus was prepared by transfection of the altered proviral clone of NL4-3. Transfections were performed in 293T cells using LipofectAMINE PLUS from Invitrogen (Carlsbad, Calif.), according to manufacturer's instruction. The virus was titered in MT-2 cells using luciferase enzyme activity as a marker. Luciferase was quantitated using the Dual Luciferase kit from Promega (Madison, Wis.), with modifications to the manufacturer's protocol. The diluted Passive Lysis solution was pre-mixed with the re-suspended Luciferase Assay Reagent and the re-suspended Stop & Glo Substrate (2:1:1 ratio). Fifty (50) μL of the mixture was added to each aspirated well on assay plates and luciferase activity was measured immediately on a Wallac TriLux (Perkin-Elmer). Antiviral activities of inhibitors toward the recombinant virus were quantified by measuring luciferase activity in cells infected for 4-5 days with NLRluc recombinants in the presence serial dilutions of the inhibitor. Table 1 is the key for the data in Table 2.
In the case of `C=C(C)[C@@H]1CC[C@]2(NCCN3C[C@@H]4C[C@H]3CS4(=O)=O)CC[C@]3(C)[C@H](CC[C@@H]4[C@@]5(C)CC=C(C6=CCC(C(=O)O)CC6)C(C)(C)[C@@H]5CC[C@]43C)[C@@H]12` (stereo partly drawn) [Example B2, 4-((1R,3aS,5aR,5bR,7aR,11aS,11bR,13aR,13bR)-3a-((2((1S,4S)-2,2-dioxido-2-thia-5-azabicyclo[2.2.1]heptan-5-yl)ethyl)amino)-5a,5b,8,8,11a-pentamethyl-1-(prop-1-en-2-yl)-2,3,3a,4,5,5a,5b,6,7,7a,8,11,11a,11b,12,13,13a,13b-octadecahydro-1H-cyclopenta[a]chrysen-9-yl)cyclohex-3-enecarboxylic acid], the EC50 was 1.18 nM.

For `C=C(C)[C@@H]1CC[C@]2(NCCN3CCC4(CC3)COC4)CC[C@]3(C)[C@H](CC[C@@H]4[C@@]5(C)CC=C(c6ccc(C(=O)O)cc6)C(C)(C)[C@@H]5CC[C@]43C)[C@@H]12` [Example B3], the EC50 was 3.82 nM.

As to `C=C(C)[C@@H]1CC[C@]2(NCCN3C[C@@H]4C[C@H]3CS4(=O)=O)CC[C@]3(C)[C@H](CC[C@@H]4[C@@]5(C)CC=C(C6=CC[C@@H](C(=O)O)CC6)C(C)(C)[C@@H]5CC[C@]43C)[C@@H]12` [Example B8, (S)-4-((1R,3aS,5aR,5bR,7aR,11aS,11bR,13aR,13bR)-3a-((2-((1S,4S)-2,2-dioxido-2-thia-5-azabicyclo[2.2.1]heptan-5-yl)ethyl)amino)-5a,5b,8,8,11a-pentamethyl-1-(prop-1-en-2-yl)-2,3,3a,4,5,5a,5b,6,7,7a,8,11,11a,11b,12,13,13a,13b-octadecahydro-1H-cyclopenta[a]chrysen-9-yl)cyclohex-3-enecarboxylic acid], the concentration for a half-maximal effect (EC50) was 1.3 nM.

Regarding `C=C(C)[C@@H]1CC[C@]2(NCCN3C[C@@H]4C[C@H]3CO4)CC[C@]3(C)[C@H](CC[C@@H]4[C@@]5(C)CC=C(C6=CC[C@H](C(=O)O)CC6)C(C)(C)[C@@H]5CC[C@]43C)[C@@H]12` [Example B9, (R)-4-((1R,3aS,5aR,5bR,7aR,11aS,11bR,13aR,13bR)-3a-((2-((1S,4S)-2-oxa-5-azabicyclo[2.2.1]heptan-5-yl)ethyl)amino)-5a,5b,8,8,11a-pentamethyl-1-(prop-1-en-2-yl)-2,3,3a,4,5,5a,5b,6,7,7a,8,11,11a,11b,12,13,13a,13b-octadecahydro-1H-cyclopenta[a]chrysen-9-yl)cyclohex-3-enecarboxylic acid], the EC50 amounted to 1.69 nM.

The assay is the same for the next values; noted with them: Renilla, NL43, MT-2 cells infected for 4-5 days with NLRluc recombinants; luciferase activity; reported as group A/B.
Turning to `C=C(C)[C@@H]1CC[C@]2(NCCN3C[C@@H]4C[C@H]3CO4)CC[C@]3(C)[C@H](CC[C@@H]4[C@@]5(C)CC=C(C6=CC[C@@H](C(=O)O)CC6)C(C)(C)[C@@H]5CC[C@]43C)[C@@H]12` [Example B10, (S)-4-((1R,3 aS,5aR,5bR,7aR,11aS,11bR,13 aR,13bR)-3a-((2-((1S,4S)-2-oxa-5-azabicyclo[2.2.1]heptan-5-yl)ethyl)amino)-5a,5b,8,8,11a-pentamethyl-1-(prop-1-en-2-yl)-2,3,3a,4,5,5a,5b,6,7,7a,8,11,11a,11b,12,13,13a,13b-octadecahydro-1H-cyclopenta[a]chrysen-9-yl)cyclohex-3-enecarboxylic acid], the EC50 was under 100 nM.

Take `C=C(C)[C@@H]1CC[C@]2(NCCN3C[C@@H]4C[C@H]3CS4(=O)=O)CC[C@]3(C)[C@H](CC[C@@H]4[C@@]5(C)CC=C(C6=CC[C@H](C(=O)O)CC6)C(C)(C)[C@@H]5CC[C@]43C)[C@@H]12` [Example B11, (R)-4-((1R,3aS,5aR,5bR,7aR,11aS,11bR,13aR,13bR)-3a-((2-((1S,4S)-2,2-dioxido-2-thia-5-azabicyclo[2.2.1]heptan-5-yl)ethyl)amino)-5a,5b,8,8,11a-pentamethyl-1-(prop-1-en-2-yl)-2,3,3a,4,5,5a,5b,6,7,7a,8,11,11a,11b,12,13,13a,13b-octadecahydro-1H-cyclopenta[a]chrysen-9-yl)cyclohex-3-enecarboxylic acid]: the EC50 is under 100 nM.

For the compound `C=C(C)[C@@H]1CC[C@]2(NCCN3C[C@@H]4C[C@H]3CS4(=O)=O)CC[C@]3(C)[C@H](CC[C@@H]4[C@@]5(C)CC[C@H](OC(=O)CC(C)(C)C(=O)O)C(C)(C)[C@@H]5CC[C@]43C)[C@@H]12` [Example B12, 4-(((1R,3aS,5aR,5bR,7aR,9S,11aR,11bR,13aR,13bR)-3a-((2-((1S,4S)-2,2-dioxido-2-thia-5-azabicyclo[2.2.1]heptan-5-yl)ethyl)amino)-5a,5b,8,8,11a-pentamethyl-1-(prop-1-en-2-yl)icosahydro-1H-cyclopenta[a]chrysen-9-yl)oxy)-2,2-dimethyl-4-oxobutanoic acid], the EC50 was under 100 nM.
